US20240124460A1, “METHODS AND COMPOSITIONS FOR TARGETED PROTEIN DEGRADATION” (Ranok Therapeutics (Hangzhou) Co. Ltd., priority 2020, published 2024)

Tests used:
[1] = target: T1, HSP90α protein (Homo sapiens, UniProt P07900); assay: HSP90α-binding FP (FITC) assay; conditions: FP competition with FITC-geldanamycin
T1 construct: purchased BPS Bioscience #50298
Method: Binding of test compounds to HSP90α protein was measured by fluorescent polarization (FP) using the HSP90α (N-terminal) Assay Kit (BPS Bioscience, #50298), following the manufacturer's instructions, except as noted. Fluorescently labeled HSP90-binding compounds, either the provided FITC-geldanamycin (5 nM final concentration) or RNK04010, a triazolone-based HSP90 binding small molecule labeled with BODIPY through a piperazine-phenyl linker (5 nM final concentration) were employed. A 2.5-fold serial dilution of each test compound ranging from 20 μM to 5.2 nM was assayed for binding to HSP90α. After the final step of adding HSP90α protein to each assay well, plates were mixed by brief shaking, incubated at 25° C. for 120 min for FITC-geldanamycin or 300 min for RNK04010, and fluorescence was measured using a PerkinElmer EnVision Plate Reader.

[2] = tested on: MV-4-11 human acute myeloid leukemia; assay: MV-4-11 CCK-8 proliferation assay; format: cell-based; conditions: Homo sapiens, MV4-11; MV-4-11 cells, 72 hr
In short: (§1)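 CCK-8 absorbance read-out, with inhibition expressed against DMSO-treated cells after subtracting a cell-free DMSO medium blank. Compounds tested over a 3-fold dilution series spanning 20 μM to 1.02 nM; lines grown essentially as ATCC recommends.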

[3] = tested on: U-87 MG human glioblastoma; assay: U87 MG CCK-8 proliferation assay; format: cell-based; conditions: Homo sapiens, U-87 MG, 72 h, U-87 MG cells, read-out: U87MG CCK-8
In short: as §1

[4] = target: T1, HSP90α protein; assay: HSP90α-binding FP (BODIPY) assay; conditions: FP competition with BODIPY-labeled RNK04010
In short: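 Fluorescence polarization measured competition with N-terminal human HSP90α, using either FITC-geldanamycin or BODIPY-labelled triazolone RNK04010 as tracer (5 nM final each). Compounds were tested in 2.5-fold dilutions from 20 μM to 5.2 nM, with incubation at 25 °C for 120 min (FITC) or 300 min (BODIPY).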

[5] = tested on: ERBB2; assay: ERBB2 (HER2) flow cytometry protein degradation assay in BT-474 cells; format: cell-based, human; conditions: DC50, BT-474 cells, 24 hr
In short: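 BT-474 cells trypsinised after compound treatment and stained with PE-conjugated anti-ERBB2 antibody, 30 min at 25° C in the dark, then fixed in 1% paraformaldehyde for flow cytometry. % inhibition = 100−(D−B)/(S−B)*100, using treated, untreated-stained and unstained cell fluorescence.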

[6] = target: MAPK7 (Homo sapiens, UniProt Q13164); assay: MAPK7 Western blot protein degradation assay in U-87 MG cells; format: cell-based; design: U-87 MG human glioblastoma cells, which express MAPK7; endogenous in cells; host or cells: U-87 MG; conditions: 48 hr
Method: U-87 MG human glioblastoma cells were seeded in 6- or 12-well tissue culture plates, and after 1 hr, test compounds were added at various concentrations and incubated at 37° C./5% CO2 for 48 hr. Cells were then washed with cold PBS, aspirated and cold RIPA buffer containing a protease/phosphatase inhibitor cocktail was added to lyse cells. After centrifugation, the total protein concentrations of cell lysates were determined using the BCA protein assay. Samples were normalized for equivalent protein concentrations, 5×SDS-PAGE loading buffer added and denatured at 100° C. for 10 min. 20 μl of each sample/well was loaded on a SDS-PAGE gel and electrophoresed for 20 min at 80 V, then 120 V for 1.5 hr. Gels were then electroblotted to nitrocellulose membranes using a wet-transfer method at 250 mA for 2.5 hr. Membranes were incubated with blocking buffer for 1 hr and washed 3 times with TBST for 5 min. Membranes were then incubated with anti-MAPK7 (anti-ERK5; Cell Signaling Technology, #12950) and anti-3-Actin (Cell Signaling Technology, #3700) monoclonal antibodies diluted in blocking buffer at 4° C. overnight per the manufacturer's recommendations. After washing 3 times, blots were incubated with appropriately labeled secondary antibodies for 1 hr at room temperature and washed again. Fluorescence imaging and quantitation was performed using a LI-COR Odyssey. Results was analyzed using GraphPad Prism 7 software.

MAPK7, sequence (Q13164 whole entry): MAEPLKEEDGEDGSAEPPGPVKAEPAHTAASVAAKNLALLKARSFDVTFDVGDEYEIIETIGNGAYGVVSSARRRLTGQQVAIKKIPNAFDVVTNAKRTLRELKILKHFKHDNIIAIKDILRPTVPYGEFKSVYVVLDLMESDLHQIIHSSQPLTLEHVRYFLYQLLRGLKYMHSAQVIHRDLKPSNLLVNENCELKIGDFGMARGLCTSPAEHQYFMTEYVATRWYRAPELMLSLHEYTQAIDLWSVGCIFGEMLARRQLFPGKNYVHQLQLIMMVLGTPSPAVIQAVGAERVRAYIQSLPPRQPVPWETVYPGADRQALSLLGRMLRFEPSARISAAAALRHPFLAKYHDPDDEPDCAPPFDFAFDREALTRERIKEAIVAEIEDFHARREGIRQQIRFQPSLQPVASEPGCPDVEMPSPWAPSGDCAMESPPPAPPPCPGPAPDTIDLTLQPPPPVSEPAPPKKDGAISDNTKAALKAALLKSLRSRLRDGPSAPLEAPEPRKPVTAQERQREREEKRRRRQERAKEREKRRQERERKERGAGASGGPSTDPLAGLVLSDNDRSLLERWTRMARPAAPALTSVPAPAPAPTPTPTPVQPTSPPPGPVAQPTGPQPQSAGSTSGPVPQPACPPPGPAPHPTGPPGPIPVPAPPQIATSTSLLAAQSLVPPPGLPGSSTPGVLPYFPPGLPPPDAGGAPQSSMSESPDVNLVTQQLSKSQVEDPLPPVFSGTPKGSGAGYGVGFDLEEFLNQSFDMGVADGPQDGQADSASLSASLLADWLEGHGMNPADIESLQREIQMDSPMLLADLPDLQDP

Compound	IC50 [1]	EC50 [2]	EC50 [3]	IC50 [4]	MAPK7 degradation (30 nM) [6]	MAPK7 degradation (100 nM) [6]	MAPK7 degradation (1000 nM) [6]	MAPK7 degradation (300 nM) [6]	ERBB2 degradation [5]
CCOc1cc(N2CCC(C(=O)NCCOCCOc3ccc(-n4c(O)nnc4-c4cc(C(C)C)c(O)cc4O)cc3)CC2)ccc1Nc1ncc2c(n1)N(C)c1ccccc1C(=O)N2C [Compound 015, N-(2-(2-(4-(3-(2,4-dihydroxy-5-isopropylphenyl)-5-hydroxy-4H-1,2,4-triazol-4-yl)phenoxy)ethoxy)ethyl)-1-(4-((5,11-dimethyl-6-oxo-6,11-dihydro-5H-benzo[e]pyrimido[5,4-b][1,4]diazepin-2-yl)amino)-3-ethoxyphenyl)piperidine-4-carboxamide]	0.1 to 1 µM	< 0.1 µM	0.1 to 1 µM						
CCOc1cc(N2CCC(C(=O)NCCOCCOCCOc3ccc(-n4c(O)nnc4-c4cc(C(C)C)c(O)cc4O)cc3)CC2)ccc1Nc1ncc2c(n1)N(C)c1ccccc1C(=O)N2C [Compound 016, N-(2-(2-(2-(4-(3-(2,4-dihydroxy-5-isopropylphenyl)-5-hydroxy-4H-1,2,4-triazol-4-yl)phenoxy)ethoxy)ethoxy)ethyl)-1-(4-((5,11-dimethyl-6-oxo-6,11-dihydro-5H-benzo[e]pyrimido[5,4-b][1,4]diazepin-2-yl)amino)-3-ethoxyphenyl)piperidine-4-carboxamide]	0.1 to 1 µM	< 0.1 µM	0.1 to 1 µM						
CCOc1cc(N2CCC(C(=O)NCCOCCOCCOc3ccc(-n4c(O)nnc4-c4cc(CC)c(O)cc4O)cc3)CC2)ccc1Nc1ncc2c(n1)N(C)c1ccccc1C(=O)N2C [Compound 017, 1-(4-((5,11-dimethyl-6-oxo-6,11-dihydro-5H-benzo[e]pyrimido[5,4-b][1,4]diazepin-2-yl)amino)-3-ethoxyphenyl)-N-(2-(2-(2-(4-(3-(5-ethyl-2,4-dihydroxyphenyl)-5-hydroxy-4H-1,2,4-triazol-4-yl)phenoxy)ethoxy)ethoxy)ethyl)piperidine-4-carboxamide]	0.1 to 1 µM	< 0.1 µM	> 1 µM						
CCOc1cc(N2CCC(C(=O)NCc3ccc(-n4c(O)nnc4-c4cc(C(C)C)c(O)cc4O)cc3F)CC2)ccc1Nc1ncc2c(n1)N(C)c1ccccc1C(=O)N2C [Compound 036, N-(4-(3-(2,4-dihydroxy-5-isopropylphenyl)-5-hydroxy-4H-1,2,4-triazol-4-yl)-2-fluorobenzyl)-1-(4-((5,11-dimethyl-6-oxo-6,11-dihydro-5H-benzo[e]pyrimido[5,4-b][1,4]diazepin-2-yl)amino)-3-ethoxyphenyl)piperidine-4-carboxamide]		< 0.1 µM	> 1 µM	0.1 to 1 µM	C (< 33% degradation)	C (< 33% degradation)	A (>66% degradation)	B (33-66% degradation)	B (DC50 = 100-1000 nM)
CCOc1cc(N2CCC(C(=O)N3CCC(N4CCN(C(=O)O[C@H]5CC[C@H](Nc6cc(-n7nc(C(F)(F)F)c8c7CC(C)(C)CC8=O)ccc6C(N)=O)CC5)CC4)CC3)CC2)ccc1Nc1ncc2c(n1)N(C)c1ccccc1C(=O)N2C [Compound 125, (1R,4R)-4-((2-carbamoyl-5-(6,6-dimethyl-4-oxo-3-(trifluoromethyl)-4,5,6,7-tetrahydro-1H-indazol-1-yl)phenyl)amino)cyclohexyl 4-(1-(1-(4-((5,11-dimethyl-6-oxo-6,11-dihydro-5H-benzo[e]pyrimido[5,4-b][1,4]diazepin-2-yl)amino)-3-ethoxyphenyl)piperidine-4-carbonyl)piperidin-4-yl)piperazine-1-carboxylate]	> 1 µM	> 1 µM	> 1 µM						

Second part, led by results:

IC50 [1]	EC50 [2]	EC50 [3]	IC50 [4]	MAPK7 degradation (30 nM) [6]	MAPK7 degradation (100 nM) [6]	MAPK7 degradation (1000 nM) [6]	MAPK7 degradation (300 nM) [6]	Compound	ERBB2 degradation [5]
0.1 to 1 µM	< 0.1 µM	0.1 to 1 µM						CCOc1cc(N2CCC(C(=O)NCCc3ccc(-n4c(O)nnc4-c4cc(C(C)C)c(O)cc4O)cc3)CC2)ccc1Nc1ncc2c(n1)N(C)c1ccccc1C(=O)N2C [Compound 008, N-(4-(3-(2,4-dihydroxy-5-isopropylphenyl)-5-hydroxy-4H-1,2,4-triazol-4-yl)phenethyl)-1-(4-((5,11-dimethyl-6-oxo-6,11-dihydro-5H-benzo[e]pyrimido[5,4-b][1,4]diazepin-2-yl)amino)-3-ethoxyphenyl)piperidine-4-carboxamide]	
0.1 to 1 µM	0.1 to 1 µM	> 1 µM						CCOc1cc(N2CCC(C(=O)NCC3CCN(C(=O)C4CCN(Cc5ccc(-n6c(O)nnc6-c6cc(CC)c(O)cc6O)cc5)CC4)CC3)CC2)ccc1Nc1ncc2c(n1)N(C)c1ccccc1C(=O)N2C [Compound 011, 1-(4-((5,11-dimethyl-6-oxo-6,11-dihydro-5H-benzo[e]pyrimido[5,4-b][1,4]diazepin-2-yl)amino)-3-ethoxyphenyl)-N-((1-(1-(4-(3-(5-ethyl-2,4-dihydroxyphenyl)-5-hydroxy-4H-1,2,4-triazol-4-yl)benzyl)piperidine-4-carbonyl)piperidin-4-yl)methyl)piperidine-4-carboxamide]	
0.1 to 1 µM	0.1 to 1 µM	> 1 µM						CCOc1cc(N2CCC(C(=O)NCC3CCN(C(=O)C4CCN(Cc5ccc(-n6c(O)nnc6-c6cc(CC)c(O)cc6O)cc5)CC4)C3)CC2)ccc1Nc1ncc2c(n1)N(C)c1ccccc1C(=O)N2C (centres unmarked) [Compound 012, 1-(4-((5,11-dimethyl-6-oxo-6,11-dihydro-5H-benzo[e]pyrimido[5,4-b][1,4]diazepin-2-yl)amino)-3-ethoxyphenyl)-N-((1-(1-(4-(3-(5-ethyl-2,4-dihydroxyphenyl)-5-hydroxy-4H-1,2,4-triazol-4-yl)benzyl)piperidine-4-carbonyl)pyrrolidin-3-yl)methyl)piperidine-4-carboxamide]	
	< 0.1 µM	0.1 to 1 µM	0.1 to 1 µM	C (< 33% degradation)	C (< 33% degradation)	A (>66% degradation)		CCOc1cc(N2CCC(C(=O)N3CCC(CN4CCN(Cc5ccc(-n6c(C(=O)NCC(F)(F)F)nnc6-c6cc(C)c(O)cc6O)cc5)CC4)CC3)CC2)ccc1Nc1ncc2c(n1)N(C)c1ccccc1C(=O)N2C [Compound 018, 5-(2,4-dihydroxy-5-methylphenyl)-4-(4-((4-((1-(1-(4-((5,11-dimethyl-6-oxo-6,11-dihydro-5H-benzo[e]pyrimido[5,4-b][1,4]diazepin-2-yl)amino)-3-ethoxyphenyl)piperidine-4-carbonyl)piperidin-4-yl)methyl)piperazin-1-yl)methyl)phenyl)-N-(2,2,2-trifluoroethyl)-4H-1,2,4-triazole-3-carboxamide]	B (DC50 = 100-1000 nM)
	< 0.1 µM	0.1 to 1 µM	0.1 to 1 µM	C (< 33% degradation)	C (< 33% degradation)	A (>66% degradation)	B (33-66% degradation)	CCOc1cc(N2CCC(C(=O)N3CCC(CN4CCN(Cc5ccc(-n6c(C(=O)NCC(F)(F)F)nnc6-c6cc(CC)c(O)cc6O)cc5)CC4)CC3)CC2)ccc1Nc1ncc2c(n1)N(C)c1ccccc1C(=O)N2C [Compound 022, 4-(4-((4-((1-(1-(4-((5,11-dimethyl-6-oxo-6,11-dihydro-5H-benzo[e]pyrimido[5,4-b][1,4]diazepin-2-yl)amino)-3-ethoxyphenyl)piperidine-4-carbonyl)piperidin-4-yl)methyl)piperazin-1-yl)methyl)phenyl)-5-(5-ethyl-2,4-dihydroxyphenyl)-N-(2,2,2-trifluoroethyl)-4H-1,2,4-triazole-3-carboxamide]	B (DC50 = 100-1000 nM)
